Assay [1] in a line: CRF-BP/CRF-R2 complex antagonists, dose response, cell-based, uHTS hits, 384-well (AID 651639). The class given is functional, Homo sapiens. The following applies: read-out: IC50_Mean.
Assay [2] addresses T1, Corticotropin-releasing factor receptor 2/Corticotropin-releasing factor-binding protein (Homo sapiens, UniProt P24387+Q13324).
T1 sequence (Q13324 whole entry): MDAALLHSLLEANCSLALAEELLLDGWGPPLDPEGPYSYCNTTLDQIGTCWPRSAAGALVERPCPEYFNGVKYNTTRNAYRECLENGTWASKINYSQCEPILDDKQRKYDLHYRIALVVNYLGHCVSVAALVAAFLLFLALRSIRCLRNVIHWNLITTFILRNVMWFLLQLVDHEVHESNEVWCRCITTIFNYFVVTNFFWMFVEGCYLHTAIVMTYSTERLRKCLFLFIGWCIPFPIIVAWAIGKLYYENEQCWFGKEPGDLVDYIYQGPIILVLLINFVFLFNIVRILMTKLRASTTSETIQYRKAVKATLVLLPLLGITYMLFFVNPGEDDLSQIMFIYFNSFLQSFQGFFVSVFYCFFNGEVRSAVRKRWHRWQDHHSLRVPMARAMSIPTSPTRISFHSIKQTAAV
T1 sequence (P24387 whole entry): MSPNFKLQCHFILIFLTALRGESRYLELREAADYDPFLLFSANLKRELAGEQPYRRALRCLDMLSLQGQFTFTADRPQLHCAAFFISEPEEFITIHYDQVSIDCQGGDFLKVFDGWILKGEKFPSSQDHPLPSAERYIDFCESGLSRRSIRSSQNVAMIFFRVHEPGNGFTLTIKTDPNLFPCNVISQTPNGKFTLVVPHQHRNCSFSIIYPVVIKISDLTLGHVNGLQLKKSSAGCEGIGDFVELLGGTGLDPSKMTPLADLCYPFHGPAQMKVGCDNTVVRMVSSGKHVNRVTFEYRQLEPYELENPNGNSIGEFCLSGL
The experiment in a line: activators of CRF receptor 2 with binding protein – uHTS hits, confirmation (AID 602473). The class given is functional. The following applies: read-out: EC50_Mean.

The target of assay [3] is T1, Corticotropin-releasing factor receptor 2/Corticotropin-releasing factor-binding protein. The experiment in a line: Dose Response confirmation of uHTS hits for small molecule antagonists of the CRF-binding protein and CRF-R2 receptor complex. The following applies: read-out: IC50_Mean. The class given is functional.
Assay [4] in a line: growth suppression of beta-catenin-knockout colon cells, dose response, cell-based, HCT116, human colon tumor (AID 1045).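 Further: HCT116 colon tumor cells with beta catenin knocked out; cells exposed to compound for 60 hours.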 The class given is functional.
Assay [5] is described as follows: growth suppression of PTEN-null colon cells, dose response, cell-based, HCT116 PTEN knockout (AID 1047).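 Further: HCT116 colon tumor cells with PTEN knocked out; cells exposed to compound for 60 hours before readout; potency for loss of cell viability measured by luminescence.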 The class given is functional.
A short description of assay [6]: Luminescence Cell-Based Dose Retest to Confirm Inhibitors of Cancer Stem Cells. [Related pubchem assays (depositor defined):AID2717, AID2721]. The following applies: Homo sapiens. The assay is classed as functional.
Assay [7] deals with T2, Caspase-3 (Homo sapiens, UniProt P42574).
T2 sequence (P42574 whole entry): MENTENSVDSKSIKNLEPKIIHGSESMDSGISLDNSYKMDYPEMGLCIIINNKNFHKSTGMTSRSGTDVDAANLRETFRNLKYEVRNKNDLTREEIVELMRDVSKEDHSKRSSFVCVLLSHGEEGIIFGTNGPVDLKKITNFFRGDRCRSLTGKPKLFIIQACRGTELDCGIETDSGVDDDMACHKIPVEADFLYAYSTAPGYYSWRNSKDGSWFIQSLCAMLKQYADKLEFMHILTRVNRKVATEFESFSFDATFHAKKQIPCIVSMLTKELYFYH
The class given is functional.

For assay [8], the target named is T3, Sentrin-specific protease 8 (Homo sapiens, UniProt Q96LD8).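 Further: luminescence read-out of SENP8 inhibition, dose-response confirmation following an ultra-high-throughput screen.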
T3 sequence (Q96LD8 whole entry): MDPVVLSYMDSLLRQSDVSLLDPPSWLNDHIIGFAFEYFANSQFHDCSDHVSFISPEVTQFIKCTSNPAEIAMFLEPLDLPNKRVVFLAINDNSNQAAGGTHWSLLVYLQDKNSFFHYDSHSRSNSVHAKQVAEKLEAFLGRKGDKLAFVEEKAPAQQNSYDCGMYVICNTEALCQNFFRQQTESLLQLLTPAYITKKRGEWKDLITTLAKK
The class given is functional.

For assay [9], the target named is T4, Sentrin-specific protease 6 (Homo sapiens, UniProt Q9GZR1).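 Further: Luminescence-based dose-response confirmatory assay of SENP6 inhibition, following up an ultra-high-throughput screen.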
T4 sequence (Q9GZR1 whole entry): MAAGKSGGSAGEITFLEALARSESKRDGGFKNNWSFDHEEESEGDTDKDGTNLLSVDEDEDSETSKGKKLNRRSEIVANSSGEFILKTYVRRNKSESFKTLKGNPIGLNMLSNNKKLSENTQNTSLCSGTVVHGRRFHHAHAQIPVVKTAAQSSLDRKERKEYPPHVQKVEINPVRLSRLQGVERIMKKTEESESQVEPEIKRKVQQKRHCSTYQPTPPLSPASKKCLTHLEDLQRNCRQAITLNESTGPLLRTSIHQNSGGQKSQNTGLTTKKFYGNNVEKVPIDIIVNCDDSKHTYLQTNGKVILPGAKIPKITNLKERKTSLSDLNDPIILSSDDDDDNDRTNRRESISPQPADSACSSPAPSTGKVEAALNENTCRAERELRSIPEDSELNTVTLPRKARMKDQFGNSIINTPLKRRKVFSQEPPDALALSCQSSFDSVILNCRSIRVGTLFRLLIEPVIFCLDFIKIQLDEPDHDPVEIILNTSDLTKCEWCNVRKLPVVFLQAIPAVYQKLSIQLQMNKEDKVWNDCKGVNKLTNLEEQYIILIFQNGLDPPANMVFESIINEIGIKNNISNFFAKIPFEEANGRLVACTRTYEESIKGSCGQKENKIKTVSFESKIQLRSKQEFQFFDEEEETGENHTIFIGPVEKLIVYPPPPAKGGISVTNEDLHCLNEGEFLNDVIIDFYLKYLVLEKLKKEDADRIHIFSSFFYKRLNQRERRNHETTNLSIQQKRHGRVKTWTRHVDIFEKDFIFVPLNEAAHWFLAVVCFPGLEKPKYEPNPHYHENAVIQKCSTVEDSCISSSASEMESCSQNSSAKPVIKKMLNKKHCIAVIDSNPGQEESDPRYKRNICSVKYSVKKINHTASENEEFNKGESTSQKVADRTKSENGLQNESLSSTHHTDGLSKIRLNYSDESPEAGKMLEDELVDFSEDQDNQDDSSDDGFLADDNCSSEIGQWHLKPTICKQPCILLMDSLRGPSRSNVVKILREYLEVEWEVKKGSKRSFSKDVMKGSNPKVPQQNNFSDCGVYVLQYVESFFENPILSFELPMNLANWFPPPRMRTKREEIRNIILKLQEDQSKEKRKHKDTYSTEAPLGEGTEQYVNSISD
The class given is functional.

Assay [10] concerns the target T5, Sentrin-specific protease 7 (Homo sapiens, UniProt Q9BQF6).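 Further: Luminescence-based dose-response confirmation of ultra-high-throughput screening hits, measuring inhibition of SENP7.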
T5 sequence (Q9BQF6 whole entry): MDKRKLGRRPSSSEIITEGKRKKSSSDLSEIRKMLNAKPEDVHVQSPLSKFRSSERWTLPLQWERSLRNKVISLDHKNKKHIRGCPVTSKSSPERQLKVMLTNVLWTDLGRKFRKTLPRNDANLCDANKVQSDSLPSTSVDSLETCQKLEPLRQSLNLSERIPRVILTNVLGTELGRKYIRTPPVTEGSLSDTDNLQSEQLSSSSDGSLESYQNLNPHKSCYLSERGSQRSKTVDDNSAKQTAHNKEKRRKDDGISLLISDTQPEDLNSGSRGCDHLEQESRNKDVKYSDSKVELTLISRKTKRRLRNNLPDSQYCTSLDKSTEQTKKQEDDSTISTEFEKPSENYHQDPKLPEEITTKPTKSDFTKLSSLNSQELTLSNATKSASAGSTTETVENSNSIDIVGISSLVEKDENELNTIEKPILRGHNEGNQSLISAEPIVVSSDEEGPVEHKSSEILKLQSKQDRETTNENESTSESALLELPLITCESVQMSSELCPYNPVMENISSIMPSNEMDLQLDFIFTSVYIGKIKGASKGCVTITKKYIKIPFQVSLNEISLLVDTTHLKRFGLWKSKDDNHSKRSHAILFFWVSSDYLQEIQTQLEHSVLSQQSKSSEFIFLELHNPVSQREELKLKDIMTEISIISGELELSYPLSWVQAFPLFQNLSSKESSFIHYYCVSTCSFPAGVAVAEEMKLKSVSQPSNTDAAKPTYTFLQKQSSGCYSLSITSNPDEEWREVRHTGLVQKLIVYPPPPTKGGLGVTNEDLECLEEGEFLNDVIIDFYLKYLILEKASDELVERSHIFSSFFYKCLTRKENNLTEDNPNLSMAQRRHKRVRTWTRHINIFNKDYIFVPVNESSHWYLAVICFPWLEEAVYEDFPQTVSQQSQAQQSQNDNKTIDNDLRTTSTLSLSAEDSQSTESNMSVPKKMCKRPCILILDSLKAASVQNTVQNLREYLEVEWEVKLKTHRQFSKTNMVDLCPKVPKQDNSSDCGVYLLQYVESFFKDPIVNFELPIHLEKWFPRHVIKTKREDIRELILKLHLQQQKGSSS
The class given is functional.

The nature of assay [11]: C. albicans growth with fluconazole, confirmation, fluorescence, retest (AID 2467). The class given is functional, cell-based.
Assay [12] in a line: inhibitors of SNCA 5'UTR-driven reporter translation, confirmation, H4 neuroglioma cells, luminescence (AID 1988). The assay is classed as functional, cell-based.
Assay [13] can be described thus: inhibitors of intracellular T. cruzi replication, confirmation, NIH3T3 host cells, beta-gal luminescence (AID 2044).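 Further: intracellular parasites grown in NIH/3T3 mouse fibroblasts as host cells; luminescent beta-galactosidase reporter signal from transgenic T. cruzi replicating inside host cells; inhibitors lower the luminescence signal.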 The assay is classed as functional, cell-based.
A short description of assay [14]: Luminescence Cell-Based Dose Response HTS to Identify Inhibitors of 5'UTR Stem-Loop Driven Prion Protein mRNA Translation in H4 Neuroglioblastoma Cells. [Related pubchem assays: 1827 (Project Summary), 1813 (Primary HTS)]. The assay is classed as functional.
Assay [15] is described as follows: cytotoxicity toward NIH3T3 fibroblasts, dose response, counter-screen, cell-based, ATP luminescence, mouse fibroblasts (AID 2010).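 Further: cells exposed to compound for about 90 hours before reading.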 The assay is classed as functional. (In general: The purpose of a counterscreen is to sort out artefacts and off-target activity.)
A short description of assay [16]: NIH-3T3 fibroblast cytotoxicity, dose response, cytotoxicity control, cell-based, fluorescence, Alamar Blue, secondary assay (AID 2327).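 Further: NIH-3T3 mouse fibroblasts cultured with fluconazole at 8 µg/mL.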 The assay is classed as functional. (In general: Alamar Blue is a resazurin reagent that responds to reducing activity.)
A short description of assay [17]: inhibitors of firefly luciferase expression or activity, dose response, H4 neuroglioma cells, luminescence (AID 1990). The class given is functional, cell-based.
Assay [18] in a line: A Cell Based Secondary Assay To Explore Cytotoxicity of Compounds that Sensitize Mycobacterium Tuberculosis to Beta-Lactam Antibiotics. The assay is classed as functional.

The record followed here is ChEMBL document CHEMBL1201862, “PubChem BioAssay data set” (2004).

As a reminder, the AC50 is the midpoint of the concentration-response curve, whichever way the signal moves. In general, CC50 refers to the concentration at which the toxic effect on the cells reaches its halfway point.

The source made the active and inactive calls.
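Wherever AC50 is given: cells exposed to compound for roughly 70 hours or longer before luminescence read.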

With `COc1ccc([N+](=O)[O-])cc1NC(=O)c1ccccc1SC`, the IC50 in assay [1] is 1.79 µM (active); in [3], 23 µM (active). Besides, the EC50 in assay [2] was > 53 µM (inactive).

Consider `N#Cc1cccc(NC(=O)Nc2cccs2)c1`, for which the figures for the IC50 in assay [1] and in [3] were > 20 µM (inactive) and < 0.368 µM (active), respectively. Further, the EC50 in assay [2] is > 53 µM (inactive).

Consider `CCN1CCN(c2cc(-c3ccccc3)nc3cc(-c4cccc(F)c4)nn23)CC1`, for which the EC50 was 11.1 µM (active) in assay [4] and 13.8 µM (active) in assay [5]. Moreover, the concentration at half-maximal activity (AC50) in [6] is 5.42 µM (active).

As to `COc1cc(NC(=O)c2cccc(Br)c2)nc(OC)n1`, the IC50 in assay [7] is 20.5 µM (active); in [8], 35.7 µM (active); in assay [9] it was 31 µM (active); in assay [10], 8.86 µM (active).

Turning to `O=C(Nc1cccc(S(=O)(=O)N2CCCCC2)c1)Nc1ccc(Cl)cc1Cl`, the EC50 in assay [4] was 8.76 µM (active); in assay [5] it was 8.66 µM (active).

Regarding `CCOC(=O)/C=C/c1ccc2oc3ccccc3c(=O)c2c1`, the IC50 is 12.2 µM (active) in assay [7], 42.7 µM (active) in assay [8], 16.6 µM (active) in [9] and 3.46 µM (active) in assay [10].

Regarding `O=C(CSc1ncnc2ccccc12)c1cccs1`, the IC50 in assay [7] is 37.4 µM (active); in assay [8] it was 17.5 µM (active); in assay [9], 23.9 µM (active); in assay [10], 4.7 µM (active).

For the compound `Cc1cccc(C(=O)O/N=C/c2c(N3CCOCC3)n(C)c3ccccc23)c1`, the EC50 is 0.729 µM (active) in assay [11]; 9.98 µM (active) in assay [12]; 3.22 µM (active) in assay [13]; 2.35 µM (active) in assay [4]; 10.8 µM (active) in [14]; 8.96 µM (active) in [15]. Also, the figures for the EC50 in assay [5], in assay [16] and in [17] were 2.47 µM (active), > 150 µM (inactive) and > 120 µM (not active), respectively.

Consider `CCCOc1ccc(C(=O)CCN2CCCCC2)cc1`, for which the CC50 in assay [18] was > 40 µM (active).

Take `COc1ccc2oc(=N)c(C(=O)Nc3ccccc3)cc2c1`: the CC50 in assay [18] was > 40 µM (active).

With `CN(C)C1=NP(N(C)C)(N(C)C)=NC(c2ccccc2)=N1`, the IC50 in [1] is > 20 µM (inactive); in assay [3] it was < 0.368 µM (active). Besides, the EC50 in assay [2] was > 53 µM (inactive).

`Nc1ccccc1Oc1c(F)c(F)c(Oc2ccccc2N)c(F)c1F`: the IC50 in assay [1] was > 20 µM (inactive); in assay [3] it was 4.08 µM (active). For the same compound, the EC50 in assay [2] was > 53 µM (inactive).

Consider `Cc1ccc(-c2nc3sc4c(c3c(=O)n2N)CCCC4)cc1`, for which the IC50 in assay [7] is 12.7 µM (active); in assay [8], > 100 µM (inactive); in assay [9] it was 18.2 µM (active); in assay [10] it was 5.25 µM (active).

Turning to `COCCn1c(=O)[nH]c(=O)c2c1nc(-c1ccc(-c3ccc(Cl)cc3[N+](=O)[O-])o1)n2Cc1ccccc1`, the EC50 is 19.4 µM (active) in assay [4] and 17.3 µM (active) in assay [5].
